# Key:
# [1] = system: Vitis vinifera L. cv. Malbec; test: Field trial 2012-2013: GA5 bunch dip once at 30 DBV on cv. Malbec grapevines (Example 2); assay type: in vivo
# Procedure: (§1) A second trial was done in the same vineyard used for the trial outlined in Example 1. Grapevines were selected from a clone of Vitis vinifera L. cv. Malbec, planted in 1997 on their own roots in a commercial vineyard located in Gualtallary, Mendoza, Argentina (1450 m above sea level, 69°15′37″ W and 33°23′51″ S). The vines were trained on a vertical trellis system arranged in north-south oriented rows spaced 2 m apart, with 1.20 m between plants within the row. The grapevines were maintained with no soil water restriction during the whole experiment by the use of a drip irrigation system (4 liters per plant per night), and the fruiting vines were protected with anti-hail nets (black polyethylene).
# The treatments were applied by submerging all of the fruit bunches on each vine in a treatment group in the selected aqueous solution (fruit bunches from control vines were submerged in water). All of the treatment solutions, including the water controls, contained 0.1% v/v of the surfactant TRITON®-X and a minimal amount of 95% EtOH to dissolve the GA5 powders (the control treatments also included a minimal amount of 95% EtOH). All treatments were applied once at 30 DBV (i.e. 61 DAF). Each berry bunch on a test vine was submerged in 750 mL of the selected treatment solution for 15 sec during a late afternoon time period.
# A randomized complete block design with 5 treatments and 5 blocks was used during the 2012-2013 production season. The experimental unit consisted of one plant selected as being “typical” among 6 consecutive plants in a selected row. Each row was a replicate, i.e., a “block”. There were thus 5 experimental units (plants) utilized for each treatment, one for each row (block). All the grapevines in the 5 replicate rows were pruned to 8 “fruiting” shoots and the crop load on each shoot was thinned to two bunches per shoot at 40 days after flowering (DAF). One shoot per experimental unit was selected, marked and used for the non-destructive measurements (shoot length, number of leaves and leaf area), while the rest of the shoots were used for berry sampling.
# (§2) Shoot length, number of leaves and midrib (main vein) length of all leaves were measured at: (i) 30 DBV just before application of the first set of treatments, and (ii) at harvest. At harvest, all of the leaves from 10 randomly selected shoots were collected in nylon bags, kept on ice to prevent dehydration, and were taken to the laboratory where the length of the leaf midribs, weights of separated leaves, and the weights of 1-cm^2 leaf discs were determined. Then, the leaf areas (LA) were calculated and, based on the weights, a linear regression model between the LA and the midrib length was generated. The correlation coefficient (r^2) was 0.91 and thus the model was used to transform the non-destructive measurements of midrib length into LA values.
# (§3) At harvest, the two selected and marked bunches from one fruiting shoot per experimental unit, i.e. not used for berry sampling, were collected in nylon bags and weighed. Then the number of berries per bunch was counted.
# [2] = system: Vitis vinifera L. cv. Malbec; test: Field trial 2010-2011: GA5 bunch dip on cv. Malbec grapevines (Example 1); assay type: in vivo
# Procedure: as §1, with “Grapevines” for “A second trial was done in the same vineyard used for the trial outlined in Example 1. Grapevines”
# The treatments were applied by submerging all of the fruit bunches on each vine in a treatment group in the selected aqueous solution (fruit bunches from control vines were submerged in water). All of the treatment solutions, including the water controls, contained 0.1% v/v of the surfactant TRITON®-X (TRITON is a registered trademark of the Dow Chemical Co., Indianapolis, Ind., USA) and a minimal amount of 95% EtOH to dissolve the GA5 powders (the control treatments also included a minimal amount of 95% EtOH). The treatments were applied three times; 56 days after flowering (DAF; i.e., 35 days before veraison—“DBV”), 70 DAF (i.e., 21 DBV), and 91 DAF (i.e., 0 DBV). The 91 DAF treatment time corresponded to veraison. Each berry bunch on a test vine was submerged in 750 mL of the selected treatment solution for 15 sec during a late afternoon time period.
# A randomized complete block design with 4 treatments and 5 blocks was used during the 2010-2011 production season. The experimental unit consisted of one plant selected as being “typical” among 6 consecutive plants in a selected row. Each row was a replicate, i.e., a “block”. There were thus 5 experimental units (plants) utilized for each treatment, one for each row (block). All the grapevines in the 5 replicate rows were pruned to 8 “fruiting” shoots and the crop load on each shoot was thinned to two bunches per shoot at 40 days after flowering (DAF). One shoot per experimental unit was selected, marked and used for the non-destructive measurements (shoot length, number of leaves and leaf area), while the rest of the shoots were used for berry sampling.
# as §2, with “56 DAF/35” for “30”, “132 DAF (harvest date).” for “at harvest.”, “the 132 DAF,” for “harvest,”
# At 132 DAF, the two selected and marked bunches from one fruiting shoot per experimental unit, i.e. not used for berry sampling, were collected in nylon bags and weighed. Then the number of berries per bunch was counted.
# Finally, in the next year's flowering and fruiting season (early 2012) the number of fruit clusters bunches per shoot were counted in order to assess GA5 treatment effects on return bloom.
# [3] = system: Vitis vinifera L. cv. Malbec; test: Field trial 2014-2015: GA5, GA4, GA4/7 bunch dip or spray on cv. Malbec grapevines (Example 3); assay type: in vivo
# Procedure: as §1, with “A third” for “A second”, “the trials” for “the trial”, “in Examples 1 and 2.” for “in Example 1.”
# The effects of two concentrations (i.e., 10 mg/L and 50 mg/L) of three different gibberellin compositions (GA5, GA4, and a mixture of GA4 and GA7 referred to as “GA4/7”) on berry and bunch development and quality in treated cv. […] All of the treatment solutions, including the water controls, contained 0.1% v/v of the surfactant TRITON®-X and a minimal amount of 96% EtOH to dissolve the various GA5, GA4, and GA4/7 powders (the control treatments also included a minimal amount of 96% EtOH).
# The effects of GA applications were assessed at two stages of berry development. The first group of test plants was treated at 60 DBV (i.e. 31 DAF) while a second group of test plants was treated at 30 DBV (i.e. 61 DAF). At each application stage, the groups of test plants receiving selected treatments were each divided into two subsets. The developing berry bunches on the first subset of plants for a selected treatment were treated by submerging into a 750-mL volume of the test solution for a period of 15 sec during late afternoon. The second subset of plants was treated with a spray application of 150 mL of test solution per each test plant. The spray applications were made in late afternoon.
# For each of the two application stages, a randomized complete block design with 14 treatments and 5 blocks was used for a […]. The experimental unit consisted of one plant selected as being “typical” among 6 consecutive plants in a selected row. Each row was a replicate, i.e., a “block”. There were thus 40 experimental units (plants) utilized for each growth regulator. All the grapevines in the 5 replicate rows were pruned to 8 “fruiting” shoots and the crop load on each shoot was thinned to two bunches per shoot at the beginning of the experiment (31 DAF or 60 DBV). One shoot per experimental unit was selected, marked and used for the non-destructive measurements (shoot length, number of leaves and leaf area), while the rest of the shoots were used for berry sampling.
# as §3
# Samples of 25 berries per experimental unit were randomly collected in nylon bags (5 berries from each bunch; two top berries, two middle berries, one bottom berry; for each test vine, berries were collected from 5 bunches exposed to the west). These berry samples were taken at 132 DAF (132 DAF being the time of ripe berry harvest). The berries were kept on dry ice to prevent enzyme activity and dehydration and were taken quickly to the laboratory where berry fresh weights (FW) were determined before the berries were stored at −20° C. Then, 15 berries per experimental unit were defrosted at ambient room temperature after which, the skins were separated from fruit pulp and seeds by hand. The fruit pulp was collected in nylon bags, crushed by hand pressing and the relative concentration of sugars (°Brix) was measured in the pulp juice with a PAL-1 digital hand-held refractometer (Atago Co., Ltd., Tokyo, Japan). The °Brix was multiplied by the berries' FW to calculate sugar on a per berry basis (absolute amounts). […]
# [4] = system: Thompson seedless table grape vines; settings: applied about three weeks before bloom; cited from earlier work
# [5] = 10 and 50 mg/L, submersion and spraying, 60 DBV and 30 DBV, vs controls
smiles,measurement,setting,value
"C=C1C[C@]23C[C@@]1(O)CC[C@H]2[C@@]12CC=C[C@@](C)(C(=O)O1)[C@H]2[C@@H]3C(=O)O [GA5, gibberellin A5]","Shoot length, significance vs Control","[1]; 5 mg/L, dip once at 30 DBV, FIG. 3A",statistically significantly different from the Control
same,Per bunch fresh weight,"[1]; 20 mg/L, dip once at 30 DBV, FIG. 4A",significantly increased
same,Number of berries per bunch,"[1]; 20 mg/L, dip once at 30 DBV, FIG. 4B",significantly increased
same,Grape yield per plant and per hectare,"[1]; 20 mg/L, inferred from bunch weight",appreciably increased
same,Shoot length,"[1]; all four treatments 5, 20, 50, 250 mg/L, dip once at 30 DBV, at harvest, FIG. 3A",decreased
same,Leaf surface area per shoot,"[1]; all four treatments 5, 20, 50, 250 mg/L, dip once at 30 DBV, at harvest, FIG. 3B",decreased
same,"Vegetative growth of shoots (shoot length, number of leaves)","[2]; 5, 50, 250 mg/L, bunch dip at 35, 21 and 0 DBV, post-56 DAF to harvest, vs controls, FIGS. 1A-1C",not significantly affected
same,Return bloom: number of fruit clusters (bunches) per shoot in the following season,"[2]; assessed early 2012, FIG. 2C",no significant effects
same,Per bunch fresh weight of grape berry bunches,"[2]; lower GA5 application rates, dip at 56, 70 and 91 DAF, harvested at 132 DAF, FIG. 2A",significant increases
same,Number of berries per bunch,"[2]; lower GA5 application rates, dip at 56, 70 and 91 DAF, harvested at 132 DAF, FIG. 2B",significant increases
same,Leaf surface area per shoot,"[2]; lower concentrations 5 mg/L, 50 mg/L, bunch dip at 35, 21 and 0 DBV, FIG. 1C",tended to reduce
same,Anthocyanin content per berry skin,[3]; [5],tended to be generally increased
same,Average per bunch fresh weight,[3]; [5],increased
same,Dry weight per individual berry,[3]; [5],generally increased
same,Fresh weight per individual berry,[3]; [5],generally increased
same,Number of berries per bunch,[3]; [5],increased
same,Sugar content per berry,[3]; [5],(non-significant) increased
same,Total polyphenol index (TPI) per berry skin,[3]; [5],tended to be generally increased
"C=C1C[C@]23C[C@@]1(O)CC[C@H]2[C@@]12C=C[C@H](O)[C@@](C)(C(=O)O1)[C@H]2[C@@H]3C(=O)O [GA3, gibberellic acid]",Berry cluster compactness,[4],reduce berry cluster compactness
same,Fruit set,[4],reduce fruit set
"C=C1C[C@]23C[C@H]1CCC2[C@@]12CC[C@H](O)C(C)(C(=O)O1)C2[C@@H]3C(=O)O (stereo partly drawn) [GA4, gibberellin A4]","Harvest yield (average per bunch fresh weight), significance vs controls","[3]; 8 rate/method/stage combinations, FIG. 8A",significantly different from the controls in 5 out of 8 rates
same,Anthocyanin content per berry skin,[3]; [5],appreciable increases
same,Average per bunch fresh weight,[3]; [5],increased
same,Dry weight per individual berry,[3]; [5],tended to be generally increased
same,Number of berries per bunch,[3]; [5],increased
same,Sugar content per berry,[3]; [5],tended to result in increased
same,Total polyphenol index (TPI) per berry skin,[3]; [5],appreciable increases

# — patent US20190021323A1, “Use of Gibberellin A5 to Increase the Yield and Quality of Wine Grapes” (UTI Limited Partnership, priority 2016, published 2019)
